# Biological target: AMPK
# Assay: AMPK activation, enzyme-linked immunosorbent assay
# Assay type: biochemical
# Summary of the method: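 AMPK activation by test compounds was measured by enzyme-linked immunosorbent assay.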
structure (smiles),measurement,setting,value
"N#Cc1ccc(CN2CCC(NC(=O)c3ccc(C(=O)NC4CCN(Cc5ccccc5)CC4)cc3)CC2)cc1 [Compound 3-33, N^1-(1-benzylpiperidin-4-yl)-N^4-(1-(4-cyanobenzyl)piperidin-4-yl)terephthalamide]",EC50,"Table 10, compounds of Table 3",10000 to 100000 nM
"N#Cc1ccc(CN2CCC(NC(=O)c3ccc4c(c3)CN(Cc3ccc(F)cc3)CC4)CC2)cc1 [Compound 3-34, N-(1-(4-cyanobenzyl)piperidin-4-yl)-2-(4-fluorobenzyl)-1,2,3,4-tetrahydroisoquinoline-7-carboxamide]",EC50,"Table 10, compounds of Table 3",< 100 nM
"O=C(NC1CCN(Cc2cccnc2)CC1)c1ccc2c(c1)CN(Cc1ccc(F)cc1)CC2 [Compound 3-35, 2-(4-fluorobenzyl)-N-(1-(pyridin-3-ylmethyl)piperidin-4-yl)-1,2,3,4-tetrahydroisoquinoline-7-carboxamide]",EC50,"Table 10, compounds of Table 3",1000 to 10000 nM
"O=C(NC1CCN(Cc2ccc(C(F)(F)F)cc2)CC1)c1ccc2c(c1)CN(Cc1ccc(F)cc1)CC2 [Compound 3-36, 2-(4-fluorobenzyl)-N-(1-(4-(trifluoromethyl)benzyl)piperidin-4-yl)-1,2,3,4-tetrahydroisoquinoline-7-carboxamide]",EC50,"Table 10, compounds of Table 3",100 to 1000 nM
"N#Cc1ccc(CN2CCC(NC(=O)c3ccc4c(c3)CN(Cc3ccc(C#N)cc3)CC4)CC2)cc1 [Compound 3-37, 2-(4-cyanobenzyl)-N-(1-(4-cyanobenzyl)piperidin-4-yl)-1,2,3,4-tetrahydroisoquinoline-7-carboxamide]",EC50,"Table 10, compounds of Table 3",< 100 nM
"N#Cc1ccc(CN2CCc3ccc(C(=O)NC4CCN(Cc5cccnc5)CC4)cc3C2)cc1 [Compound 3-38, 2-(4-cyanobenzyl)-N-(1-(pyridin-3-ylmethyl)piperidin-4-yl)-1,2,3,4-tetrahydroisoquinoline-7-carboxamide]",EC50,"Table 10, compounds of Table 3",< 100 nM
"N#Cc1ccc(CN2CCc3ccc(C(=O)NC4CCN(Cc5ccc(C(F)(F)F)cc5)CC4)cc3C2)cc1 [Compound 3-39, 2-(4-cyanobenzyl)-N-(1-(4-(trifluoromethyl)benzyl)piperidin-4-yl)-1,2,3,4-tetrahydroisoquinoline-7-carboxamide]",EC50,"Table 10, compounds of Table 3",1000 to 10000 nM
"N#Cc1ccc(CN2CCC(NC(=O)c3ccc(C(=O)N4CCN(Cc5ccc(C#N)cc5)CC4)cn3)CC2)cc1 [Compound 4-1, 5-(4-(4-cyanobenzyl)piperazine-1-carbonyl)-N-(1-(4-cyanobenzyl)piperidin-4-yl)picolinamide]",EC50,"Table 11, compounds of Table 4",< 500 nM
"N#Cc1ccc(CN2CCC(NC(=O)c3ccc(C(=O)N4CCN(Cc5ccc(F)cc5)CC4)cn3)CC2)cc1 [Compound 4-2, N-(1-(4-cyanobenzyl)piperidin-4-yl)-5-(4-(4-fluorobenzyl)piperazine-1-carbonyl)picolinamide]",EC50,"Table 11, compounds of Table 4",< 500 nM
"N#Cc1ccc(CN2CCC(NC(=O)c3ccc(C(=O)N4CCN(Cc5ccc(C(F)(F)F)cc5)CC4)cn3)CC2)cc1 [Compound 4-3, N-(1-(4-cyanobenzyl)piperidin-4-yl)-5-(4-(4-(trifluoromethyl)benzyl)piperazine-1-carbonyl)picolinamide]",EC50,"Table 11, compounds of Table 4",< 500 nM
"O=C(N[C@H]1CCN(Cc2ccc(F)cc2)C1)c1ccc(C(=O)N2CCN(c3ccc(Cl)cc3)CC2)cn1 [Compound 4-4, (S)-5-(4-(4-chlorophenyl)piperazine-1-carbonyl)-N-(1-(4-fluorobenzyl)pyrrolidin-3-yl)picolinamide]",EC50,"Table 11, compounds of Table 4",1000 to 5000 nM
"O=C(N[C@H]1CCN(Cc2ccncc2)C1)c1ccc(C(=O)N2CCN(c3ccc(Cl)cc3)CC2)cn1 [Compound 4-5, (S)-5-(4-(4-chlorophenyl)piperazine-1-carbonyl)-N-(1-(pyridin-4-ylmethyl)pyrrolidin-3-yl)picolinamide]",EC50,"Table 11, compounds of Table 4",1000 to 5000 nM
"N#Cc1ccc(CN2CC[C@H](NC(=O)c3ccc(C(=O)N4CCN(c5ccc(Cl)cc5)CC4)cn3)C2)cc1 [Compound 4-6, (S)-5-(4-(4-chlorophenyl)piperazine-1-carbonyl)-N-(1-(4-cyanobenzyl)pyrrolidin-3-yl)picolinamide]",EC50,"Table 11, compounds of Table 4",500 to 1000 nM

# — US9409884B2 (Rigel Pharmaceuticals, Inc., priority 2012, dated 2016)
